Results taken from patent US10654856B2, “Method for preparing pyrrolo[3,2-D]pyrimidine compound, and intermediates thereof” (CHIA TAI TIANQING PHARMACEUTICAL GROUP CO., LTD., priority 2016, dated 2020).

Biological target: Toll-like receptor 7 (Homo sapiens (Human), UniProt Q9NYK1)
Test: Toll-like receptor 7 in vitro receptor binding activity screen (HEK-blue hTLR7 cell, Quanti-Blue alkaline phosphatase readout)
Type: cell-based
Conditions: 24 h incubation, read-out: TLR7 EC50
Description: Toll-Like Receptor 7 and Toll-Like Receptor 8 In Vitro Receptor Binding Activity Screen
HEK-blue hTLR7 cell and HEK-blue hTLR8 cell (available from InvivoGen)
heat inactivated fetal bovine serum
Anti Mycoplasma reagent Normocin™
The structures of GS-9620 and R848 used are as follows, wherein the preparation of GS-9620 could be referred to the process disclosed in US20100143301; R848 was commercially available from ABGENT (IMG-2208, specification: 0.5 mg).
1. Preparation of 96-well compound plate:
The compounds were gradient diluted with DMSO in 3-fold using liquid work station POD starting at a concentration of 10 mmol/L and 10 points were diluted (2nd column to 11th column, and each point was duplicated). At 12th column, 1 μL of 5 mg/mL positive compound R848 was added as positive control; and at 1st column, 1 μL of DMSO was added as negative control. Each well contained 1 μL of DMSO.
2. The cells in culture flask were collected and the cell density was diluted to 250,000 cells/mL.
3. 200 μL (50,000 cells/well) of cell suspension was added into prepared compound plate and the final concentration of DMSO in each well was 0.5%.
4. The culture plates containing cells and the compounds were incubated in CO2 incubator for 24 h at 37° C., 5% CO2.
5. After 24 h incubation, 20 μL of supernatant was removed from each well to a 96-well transparent assay plate. To each well of the assay plate was added 180 μL of Quanti-Blue reagent and the plate was incubated in an incubator at 37° C., 5% CO2 for 1 h.
6. After 1 h, the content of alkaline phosphatase in 20 μL of supernatant was determined using Microplate Reader OD650.
7. EC50 of each compound was obtained with Prism software.

Sequence of Toll-like receptor 7 (Q9NYK1 27-1049): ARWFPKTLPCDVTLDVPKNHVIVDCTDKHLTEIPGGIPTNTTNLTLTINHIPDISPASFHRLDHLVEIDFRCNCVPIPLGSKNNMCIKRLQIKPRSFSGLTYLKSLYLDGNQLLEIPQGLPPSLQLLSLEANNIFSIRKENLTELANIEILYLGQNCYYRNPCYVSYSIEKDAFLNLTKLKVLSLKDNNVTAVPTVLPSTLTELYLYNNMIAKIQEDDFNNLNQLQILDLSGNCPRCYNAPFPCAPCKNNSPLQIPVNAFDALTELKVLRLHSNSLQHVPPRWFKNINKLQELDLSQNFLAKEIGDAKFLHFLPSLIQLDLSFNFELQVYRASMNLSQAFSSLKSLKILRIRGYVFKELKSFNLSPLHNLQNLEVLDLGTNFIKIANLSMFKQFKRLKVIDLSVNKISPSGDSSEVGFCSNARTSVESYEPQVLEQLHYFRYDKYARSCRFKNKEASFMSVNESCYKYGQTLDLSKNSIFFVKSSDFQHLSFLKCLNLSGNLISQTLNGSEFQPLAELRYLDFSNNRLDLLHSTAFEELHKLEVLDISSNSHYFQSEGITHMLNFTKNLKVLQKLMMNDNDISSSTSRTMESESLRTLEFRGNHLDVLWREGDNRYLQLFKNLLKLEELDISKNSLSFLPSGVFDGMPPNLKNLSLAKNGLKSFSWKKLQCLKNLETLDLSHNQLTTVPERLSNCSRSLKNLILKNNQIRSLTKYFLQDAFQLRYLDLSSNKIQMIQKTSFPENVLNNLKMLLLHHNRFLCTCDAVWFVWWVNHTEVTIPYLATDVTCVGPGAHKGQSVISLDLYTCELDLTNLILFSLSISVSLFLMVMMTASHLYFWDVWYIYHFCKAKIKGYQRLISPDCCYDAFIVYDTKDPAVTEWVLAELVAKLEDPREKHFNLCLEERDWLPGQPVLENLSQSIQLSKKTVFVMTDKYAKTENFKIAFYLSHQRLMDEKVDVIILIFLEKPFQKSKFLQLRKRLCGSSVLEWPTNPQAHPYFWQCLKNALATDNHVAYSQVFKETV

SMILES	EC50
CCCCOc1nc(N)c2[nH]cc(Cc3ccc(CN4CCCC4)cc3)c2n1 [Compound 1, 2-butoxy-7-(4-(pyrrolidin-1-ylmethyl)benzyl)-5H-pyrrolo[3,2-d]pyrimidin-4-amine]	100 to 1000 nM
CCCCOc1nc(N)c2[nH]cc(Cc3ccc(CN4CCC(F)(F)C4)cc3)c2n1 [Compound 2]	1000 to 50000 nM
CCCCOc1nc(N)c2[nH]cc(Cc3ccc(CN4CCC(F)C4)cc3)c2n1 (stereo not shown) [Compound 3]	100 to 1000 nM
CCCCOc1nc(N)c2[nH]cc(Cc3ccc(CN4CCOCC4)cc3)c2n1 [Compound 6]	1000 to 50000 nM
CCCCOc1nc(N)c2[nH]cc(Cc3ccc(CN4CCN(C)CC4)cc3)c2n1 [Compound 7]	1000 to 50000 nM
CCCCOc1nc(N)c2[nH]cc(Cc3ccc(CN4CC(C)OC(C)C4)cc3)c2n1 (stereo not shown) [Compound 14]	100 to 1000 nM
CCCCOc1nc(N)c2[nH]cc(Cc3ccc(CN4CCC(OC)CC4)cc3)c2n1 [Compound 15]	100 to 1000 nM
CCCCOc1nc(N)c2[nH]cc(Cc3ccc(CN4CCN(C(C)C)CC4)cc3)c2n1 [Compound 16]	100 to 1000 nM

Results, then the molecule that gave them:

EC50	SMILES
100 to 1000 nM	CCCCOc1nc(N)c2[nH]cc(Cc3ccc(CN4CCC(O)C4)cc3)c2n1 (stereo not shown) [Compound 4]
100 to 1000 nM	CCCCOc1nc(N)c2[nH]cc(Cc3ccc(CN4CCCCC4)cc3)c2n1 [Compound 5]
100 to 1000 nM	CCCCOc1nc(N)c2[nH]cc(Cc3ccc(CN(C)C)cc3)c2n1 [Compound 8]
100 to 1000 nM	CCCCOc1nc(N)c2[nH]cc(Cc3ccc(CN(CC)CC)cc3)c2n1 [Compound 9]
100 to 1000 nM	CCCCOc1nc(N)c2[nH]cc(Cc3ccc(CN(CCC)CCC)cc3)c2n1 [Compound 10]
100 to 1000 nM	CCCCOc1nc(N)c2[nH]cc(Cc3ccc(CN4CCC4)cc3)c2n1 [Compound 11]
100 to 1000 nM	CCCCOc1nc(N)c2[nH]cc(Cc3ccc(CN4CC(OC)C4)cc3)c2n1 [Compound 12]
100 to 1000 nM	CCCCOc1nc(N)c2[nH]cc(Cc3ccc(CN4CCCN(C)CC4)cc3)c2n1 [Compound 13]
